Results: ChEMBL document CHEMBL1201862, “PubChem BioAssay data set” (2004)
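How tested: cells in 96-well plates exposed to compound for 48 hours at five concentrations. GI50: concentration for 50% inhibition of growth.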 Calls of active or inactive are those of the source. Cut-off read from the data, not from the text of the source: active = GI50 up to about 1.1 µM and inactive = higher.

Columns and labels:
Test in all cases: growth of human tumour cells (NCI), 48 h
786-0 = tested on: 786-0
A549 = tested on: A549
CAKI-1 = tested on: CAKI-1
COLO 205 = tested on: COLO 205
DLD-1 = tested on: DLD-1
DMS-273 = tested on: DMS-273
EKVX = tested on: EKVX
HCC 2998 = tested on: HCC 2998
HCT-15 = tested on: HCT-15
HL-60 = tested on: HL-60
HOP-18 = tested on: HOP-18
IGROV-1 = tested on: IGROV-1
K562 = tested on: K562
KM12 = tested on: KM12
MOLT-4 = tested on: MOLT-4
NCI-H226 = tested on: NCI-H226
OVCAR-3 = tested on: OVCAR-3
OVCAR-8 = tested on: OVCAR-8
SK-MEL-2 = tested on: SK-MEL-2
SK-MEL-5 = tested on: SK-MEL-5
SN12C = tested on: SN12C
SR = tested on: SR
SW-620 = tested on: SW-620
TK-10 = tested on: TK-10
XF498 = tested on: XF498
A498 = tested on: A498
ACHN = tested on: ACHN
CCRF-CEM = tested on: CCRF-CEM
DMS-114 = tested on: DMS-114
HCT-116 = tested on: HCT-116
HOP-62 = tested on: HOP-62
HOP-92 = tested on: HOP-92
HT-29 = tested on: HT-29
KM-20L2 = tested on: KM-20L2
LOX IMVI = tested on: LOX IMVI
M14 = tested on: M14
M19-MEL = tested on: M19-MEL
Malme-3M = tested on: Malme-3M
NCI-H23 = tested on: NCI-H23
NCI-H460 = tested on: NCI-H460
NCI-H522 = tested on: NCI-H522
OVCAR-4 = tested on: OVCAR-4
OVCAR-5 = tested on: OVCAR-5
RPMI-8226 = tested on: RPMI-8226
RXF 393 = tested on: RXF 393
SF-268 = tested on: SF-268
SF-295 = tested on: SF-295
SF-539 = tested on: SF-539
SK-MEL-28 = tested on: SK-MEL-28
SNB-19 = tested on: SNB-19
SNB-75 = tested on: SNB-75
SNB-78 = tested on: SNB-78
U-251 = tested on: U-251
UACC-257 = tested on: UACC-257
UACC-62 = tested on: UACC-62
UO-31 = tested on: UO-31
LXFL 529 = tested on: LXFL 529
SK-OV-3 = tested on: SK-OV-3

Measured: GI50

CSc1nc(-c2ccc(Cl)cc2)c(C#N)c(=O)n1C1OC(COC(C)=O)C(OC(C)=O)C(OC(C)=O)C1OC(C)=O (stereo not given)
inactive: 786-0 > 100 µM | A549 > 100 µM | CAKI-1 > 100 µM | COLO 205 > 100 µM | DLD-1 > 100 µM | DMS-273 > 100 µM | EKVX > 100 µM | HCC 2998 > 100 µM | HL-60 > 100 µM | HOP-18 29.9 µM | IGROV-1 57.1 µM | K562 > 100 µM | KM12 > 100 µM | MOLT-4 > 75 µM | NCI-H226 33 µM | OVCAR-3 12.6 µM | OVCAR-8 > 100 µM | SK-MEL-2 53.8 µM | SK-MEL-5 > 100 µM | SN12C > 100 µM | SR > 100 µM | SW-620 > 100 µM | TK-10 > 100 µM | XF498 > 100 µM
> 100 µM: HCT-15

CS/C(=N/C(=O)c1ccccc1Cl)SCCS/C(=N\C(=O)c1ccccc1Cl)SC
inactive: 786-0 > 100 µM | A498 > 100 µM | A549 > 100 µM | ACHN > 100 µM | CAKI-1 > 100 µM | CCRF-CEM > 100 µM | COLO 205 > 100 µM | DLD-1 > 100 µM | DMS-114 > 100 µM | DMS-273 > 100 µM | EKVX > 100 µM | HCC 2998 > 100 µM | HCT-116 > 100 µM | HL-60 > 100 µM | HOP-62 > 100 µM | HOP-92 19.6 µM | HT-29 > 100 µM | IGROV-1 > 100 µM | K562 > 100 µM | KM-20L2 > 100 µM | KM12 > 100 µM | LOX IMVI > 100 µM | M14 > 100 µM | M19-MEL > 100 µM | MOLT-4 > 100 µM | Malme-3M > 100 µM | NCI-H226 > 100 µM | NCI-H23 > 100 µM | NCI-H460 > 100 µM | NCI-H522 > 100 µM | OVCAR-3 > 100 µM | OVCAR-4 > 100 µM | OVCAR-5 > 100 µM | OVCAR-8 > 100 µM | RPMI-8226 > 100 µM | RXF 393 > 100 µM | SF-268 > 100 µM | SF-295 > 100 µM | SF-539 > 100 µM | SK-MEL-28 > 100 µM | SK-MEL-2 > 100 µM | SK-MEL-5 > 100 µM | SN12C > 100 µM | SNB-19 > 100 µM | SNB-75 > 100 µM | SNB-78 > 100 µM | SW-620 > 100 µM | TK-10 > 100 µM | U-251 > 100 µM | UACC-257 > 100 µM | UACC-62 > 100 µM | UO-31 > 100 µM | XF498 > 100 µM
> 100 µM: HCT-15

Cc1nc2c(n1CC(C)(C)C)C(=O)c1ccccc1C2=O
> 100 µM: HCT-15
inactive: 786-0 > 100 µM | A549 > 100 µM | ACHN > 100 µM | CCRF-CEM > 100 µM | COLO 205 > 100 µM | DLD-1 > 100 µM | DMS-273 76.9 µM | EKVX > 100 µM | HCC 2998 > 100 µM | HCT-116 79.3 µM | HL-60 36.1 µM | HOP-62 > 100 µM | HOP-92 16.7 µM | HT-29 98.9 µM | IGROV-1 > 100 µM | K562 56 µM | KM-20L2 > 100 µM | KM12 > 100 µM | LOX IMVI 55.6 µM | LXFL 529 > 100 µM | M14 > 100 µM | MOLT-4 91.2 µM | Malme-3M 76.9 µM | NCI-H226 > 100 µM | NCI-H23 > 100 µM | NCI-H460 58.6 µM | NCI-H522 92.7 µM | OVCAR-3 66.7 µM | OVCAR-4 > 100 µM | OVCAR-8 > 100 µM | RXF 393 > 100 µM | SF-268 > 100 µM | SF-295 > 100 µM | SF-539 > 100 µM | SK-MEL-28 > 100 µM | SK-MEL-2 > 100 µM | SK-MEL-5 43.1 µM | SK-OV-3 > 100 µM | SN12C > 100 µM | SNB-19 > 100 µM | SNB-75 > 100 µM | SNB-78 > 100 µM | SR 97.7 µM | SW-620 > 100 µM | TK-10 > 100 µM | U-251 > 100 µM | UACC-257 80.7 µM | UACC-62 89.5 µM | UO-31 > 100 µM | XF498 > 100 µM
